# Results from US10941152B2, “Pyrazole compounds as modulators of FSHR and uses thereof” (TOCOPHERX, INC., priority 2014, dated 2021).
# Columns and labels:
# [1] = molecular target: T1, FSHR (Homo sapiens, UniProt P23945); experiment: EC50 of cyclic AMP production in CHO FSHR cells + EC20 FSH (Assay A); type: cell-based; settings: cyclic AMP production in CHO FSHR cells + EC20 FSH (0.265 pM), HTRF
# T1 construct: expressed in transfected cells; host or cells: CHO (Cho-FSHR-LUC-1-1-43)
# T1 sequence (P23945 18-695): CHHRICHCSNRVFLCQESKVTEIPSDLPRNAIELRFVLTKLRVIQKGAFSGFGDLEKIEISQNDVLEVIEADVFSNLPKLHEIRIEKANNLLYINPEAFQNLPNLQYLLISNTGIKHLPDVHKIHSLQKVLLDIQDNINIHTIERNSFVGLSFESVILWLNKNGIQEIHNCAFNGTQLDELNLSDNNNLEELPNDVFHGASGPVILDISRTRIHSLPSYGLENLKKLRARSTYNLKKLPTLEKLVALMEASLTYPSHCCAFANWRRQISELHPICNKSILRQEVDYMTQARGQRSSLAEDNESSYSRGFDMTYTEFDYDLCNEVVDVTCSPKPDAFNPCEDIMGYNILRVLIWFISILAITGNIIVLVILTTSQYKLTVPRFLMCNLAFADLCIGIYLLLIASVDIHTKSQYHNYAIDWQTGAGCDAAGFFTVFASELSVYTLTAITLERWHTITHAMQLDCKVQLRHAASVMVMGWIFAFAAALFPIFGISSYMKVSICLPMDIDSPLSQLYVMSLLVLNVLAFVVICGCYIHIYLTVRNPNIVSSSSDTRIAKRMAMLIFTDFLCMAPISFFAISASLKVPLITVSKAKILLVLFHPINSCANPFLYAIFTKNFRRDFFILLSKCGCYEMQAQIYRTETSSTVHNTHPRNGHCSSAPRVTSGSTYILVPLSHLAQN
# How it was run: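 cAMP was detected by HTRF as the 665/620 nm ratio. The CHO-FSHR cells had first been exposed for 1 h at 37° C to test compound together with 0.265 pM FSH (EC20) and 200 μM IBMX. Responses are given as percent of the FSH standard maximum.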
# [2] = molecular target: T2, follicle-stimulating hormone (FSH) receptor (Rattus norvegicus, UniProt P20395); experiment: Rat granulosa EC50 FSH (Assay B); type: cell-based
# T2 construct: endogenous in cells; host or cells: rat granulosa cells
# T2 sequence (P20395 18-692): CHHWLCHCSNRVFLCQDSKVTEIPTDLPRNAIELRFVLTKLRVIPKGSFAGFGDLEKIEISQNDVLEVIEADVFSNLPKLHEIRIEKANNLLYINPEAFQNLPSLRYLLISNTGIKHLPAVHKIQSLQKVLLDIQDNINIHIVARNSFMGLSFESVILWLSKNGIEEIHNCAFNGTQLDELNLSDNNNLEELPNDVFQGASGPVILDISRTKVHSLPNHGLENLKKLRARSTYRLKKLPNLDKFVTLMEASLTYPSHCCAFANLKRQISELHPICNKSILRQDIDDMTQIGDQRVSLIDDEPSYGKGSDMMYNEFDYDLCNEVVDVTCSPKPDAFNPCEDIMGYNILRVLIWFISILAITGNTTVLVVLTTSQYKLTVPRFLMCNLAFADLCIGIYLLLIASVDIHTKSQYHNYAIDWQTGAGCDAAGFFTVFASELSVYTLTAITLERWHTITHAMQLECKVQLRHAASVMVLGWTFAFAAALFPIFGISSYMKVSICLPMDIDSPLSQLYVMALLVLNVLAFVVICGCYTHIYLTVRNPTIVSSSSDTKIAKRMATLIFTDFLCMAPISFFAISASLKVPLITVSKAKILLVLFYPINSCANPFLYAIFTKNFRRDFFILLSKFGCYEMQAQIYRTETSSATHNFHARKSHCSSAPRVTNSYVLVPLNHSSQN
# Experimental: Example 25. Rat granulosa EC50 FSH (Assay B)
# The assay was performed pursuant to the teaching of Yanofsky et al. (2006) Allosteric activation of the follicle-stimulating hormone (FSH) receptor by selective, nonpeptide agonists (JBC 281(19): 13226-13233, which is incorporated by reference in the disclosure of the invention).
Structure (SMILES),EC50 [1] [nM],EC50 [2] [nM]
"COc1cc2c(cc1-c1cc(=O)[nH][nH]1)-c1c(c(C(=O)N(C)C(C)(C)C)nn1-c1ccsc1)CO2 [Compound 185, N-tert-butyl-7-methoxy-N-methyl-8-(5-oxo-2,5-dihydro-1H-pyrazol-3-yl)-1-(thiophen-3-yl)-1,4-dihydrochromeno[4,3-c]pyrazole-3-carboxamide]",10 to 100,101 to 500
"CCOC(=O)[C@@H]1C[C@@H]1c1cc2c(cc1OC)OCc1c(C(=O)N(C)C(C)(C)C)nn(-c3cc(Cl)cc(Cl)c3)c1-2 (racemic) [Compound 197, (1RS,2SR)-ethyl 2-(3-(tert-butyl(methyl)carbamoyl)-1-(3,5-dichlorophenyl)-7-methoxy-1,4-dihydrochromeno[4,3-c]pyrazol-8-yl)cyclopropanecarboxylate]",10 to 100,> 500
"COc1cc(OC)cc(-n2nc(C(=O)N(C)C(C)(C)CCO)c3c2-c2cc(-c4ccn(C)n4)c(OC)cc2OC3)c1 [Compound 134, 1-(3,5-dimethoxyphenyl)-N-(4-hydroxy-2-methylbutan-2-yl)-7-methoxy-N-methyl-8-(1-methyl-1H-pyrazol-3-yl)-1,4-dihydrochromeno[4,3-c]pyrazole-3-carboxamide]",10 to 100,> 500
"COc1cc2c(cc1-c1cncc(C)c1)-c1c(c(C(=O)N(C)C(C)(C)C)nn1-c1ccsc1)CO2 [Compound 59, N-tert-butyl-7-methoxy-N-methyl-8-(5-methylpyridin-3-yl)-1-(thiophen-3-yl)-1,4-dihydrochromeno[4,3-c]pyrazole-3-carboxamide]",10 to 100,> 500
"COc1cc2c(cc1-c1cc(C)cnc1F)-c1c(c(C(=O)N(C)C(C)(C)C)nn1-c1ccsc1)CO2 [Compound 62, N-tert-butyl-8-(2-fluoro-5-methylpyridin-3-yl)-7-methoxy-N-methyl-1-(thiophen-3-yl)-1,4-dihydrochromeno[4,3-c]pyrazole-3-carboxamide]",< 10,10 to 100

# Other lines, results leading:
EC50 [1] [nM],EC50 [2] [nM],Structure (SMILES)
< 10,101 to 500,"COc1cc2c(cc1-c1cncc(C(=O)O)c1)-c1c(c(C(=O)N(C)C(C)(C)C#N)nn1-c1cc(F)cc(F)c1)CO2 [Compound 107, 5-(3-((2-cyanopropan-2-yl)(methyl)carbamoyl)-1-(3,5-difluorophenyl)-7-methoxy-1,4-dihydrochromeno[4,3-c]pyrazole-8-yl)nicotinic acid]"
< 10,10 to 100,"[2H]C([2H])([2H])Oc1cc(Cl)cc(-n2nc(C(=O)N(C)C(C)(C)C)c3c2-c2cc(-c4cncc(C#N)c4)c(OC([2H])([2H])[2H])cc2OC3)c1 [Compound 36, N-tert-butyl-1-(3-chloro-5-D3-methoxyphenyl)-8-(5-cyanopyridin-3-yl)-7-D3-methoxy-N-methyl-1H,4H-chromeno[4,3-c]pyrazole-3-carboxamide]"
< 10,< 10,"COc1cc2c(cc1-c1cncc(NC(C)=O)c1)-c1c(c(C(=O)N(C)C(C)(C)C)nn1-c1cc(Cl)cc(Cl)c1)CO2 [Compound 182, 8-(5-acetamidopyridin-3-yl)-N-tert-butyl-1-(3,5-dichlorophenyl)-7-methoxy-N-methyl-1,4-dihydrochromeno[4,3-c]pyrazole-3-carboxamide]"
< 10,101 to 500,"COc1cc2c(cc1-c1cnc(N)c(C)c1)-c1c(c(C(=O)N(C)C(C)(C)C)nn1-c1cc(Cl)cc(Cl)c1)CO2 [Compound 17, 8-(6-amino-5-methylpyridin-3-yl)-N-tert-butyl-1-(3,5-dichlorophenyl)-7-methoxy-N-methyl-1,4-dihydrochromeno[4,3-c]pyrazole-3-carboxamide]"
< 10,10 to 100,"COc1cc2c(cc1-c1cnn(CC(=O)N(C)C)c1)-c1c(c(C(=O)N3CCOCC3(C)C)nn1-c1cc(Cl)cc(Cl)c1)CO2 [Compound 92, 2-(4-(1-(3,5-dichlorophenyl)-3-(3,3-dimethylmorpholine-4-carbonyl)-7-methoxy-1,4-dihydrochromeno[4,3-c]pyrazol-8-yl)-1H-pyrazol-1-yl)-N,N-dimethylacetamide]"
